Results published in patent publication US9980943B2, “Methods of treating muscular dystrophy” (BOARD OF REGENTS OF THE NEVADA SYSTEM OF HIGHER EDUCATION, …, priority 2013, dated 2018).

Columns and labels:
Format in all cases: cell-based, mouse
[1] = tested on: α7 integrin (LacZ reporter in α7βgal+/− myoblasts); experiment: Myoblast α7+/LacZ integrin FDG assay (Burkin assay in myoblasts, 96-well); details: α7+/LacZ myoblasts, 96-well; for fold induction at 0.5 µM / fold induction at 1 µM / fold induction at 5 µM / fold induction at 10 µM / fold induction at 20 µM / fold induction at 40 µM: Mus musculus, Myoblast, 48 h, read-out: Burkin Assay in Myoblasts, signal relative to DMSO
[2] = tested on: α7 integrin (LacZ reporter in α7+/LacZ myotubes); experiment: Myotube α7 integrin FDG assay (Burkin assay in myotubes, 96-well); details: myotubes; for fold induction at 0.5 µM / fold induction at 1 µM / fold induction at 5 µM / fold induction at 10 µM / fold induction at 20 µM / fold induction at 40 µM: Mus musculus, Myotube, read-out: Burkin Assay in Myotubes, α7 integrin LacZ reporter signal relative to DMSO
[3] = tested on: β-galactosidase in CMV-LacZ C2C12 myotubes; experiment: CMV-LacZ secondary screen in C2C12 myotubes (β-Gal stabilizing assay); details: C2C12 CMV-LacZ myotubes, fold relative to DMSO; for fold induction at 5 µM / fold induction at 10 µM / fold induction at 20 µM / fold induction at 40 µM: Mus musculus; for fold induction at 5 µM: C2C12, read-out: CMV-LACZ in Myotubes, signal relative to DMSO, 5 uM; for fold induction at 10 µM: C2C12, read-out: CMV-LACZ in Myotubes, signal relative to DMSO, 10 uM; for fold induction at 20 µM: C2C12, read-out: CMV-LACZ in Myotubes, signal relative to DMSO, 20 uM; for fold induction at 40 µM: C2C12, read-out: CMV-LACZ in Myotubes, signal relative to DMSO, 40 uM
Procedure, shortened: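 β-Gal level was the read-out, measured in a clonal C2C12 line expressing LacZ from a CMV promoter. Dose-response curves used six concentrations, 0.5 μM up to 40 μM, with duplicate points.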

Compound	Burkin Assay in Myoblasts, signal relative to DMSO ([1]; 0.5 uM)	Burkin Assay in Myoblasts, signal relative to DMSO ([1]; 1 uM)	Burkin Assay in Myoblasts, signal relative to DMSO ([1]; 5 uM)	Burkin Assay in Myoblasts, signal relative to DMSO ([1]; 10 uM)	Burkin Assay in Myoblasts, signal relative to DMSO ([1]; 20 uM)	Burkin Assay in Myoblasts, signal relative to DMSO ([1]; 40 uM)	Burkin Assay in Myotubes, α7 integrin LacZ reporter signal relative to DMSO ([2]; 0.5 uM)	Burkin Assay in Myotubes, α7 integrin LacZ reporter signal relative to DMSO ([2]; 1 uM)	Burkin Assay in Myotubes, α7 integrin LacZ reporter signal relative to DMSO ([2]; 5 uM)	Burkin Assay in Myotubes, α7 integrin LacZ reporter signal relative to DMSO ([2]; 10 uM)	Burkin Assay in Myotubes, α7 integrin LacZ reporter signal relative to DMSO ([2]; 20 uM)	Burkin Assay in Myotubes, α7 integrin LacZ reporter signal relative to DMSO ([2]; 40 uM)	CMV-LACZ in Myotubes, signal relative to DMSO ([3]; 5 uM)	CMV-LACZ in Myotubes, signal relative to DMSO ([3]; 10 uM)	CMV-LACZ in Myotubes, signal relative to DMSO ([3]; 20 uM)	CMV-LACZ in Myotubes, signal relative to DMSO ([3]; 40 uM)	fold induction at 0.5 µM ([1]; 0.5 uM)	fold induction at 1 µM ([1]; 1 uM)	fold induction at 5 µM ([1]; 5 uM)	fold induction at 10 µM ([1]; 10 uM)	further results
COC(=O)C1=NNC2(C)C(=O)N(c3ccc(C)cc3)C(=O)C12 (stereo not drawn) [MLS000767227-01]	1.025	0.8073	0.8577	0.9107	0.9133	0.9283	0.8593	0.8998	0.9645	0.844	0.7775	0.9434	1.024	1.1	0.9975	1.1815					
Nc1nccc(-c2ccc(-n3cnc4ccccc43)cc2)n1 [MLS000763405-01]																	0.961	1.03	1.46	1.53	fold induction at 20 µM ([1]; 20 uM): 1.47; fold induction at 40 µM ([1]; 40 uM): 1.08; fold induction at 0.5 µM ([2]; 0.5 uM): 1.03; fold induction at 1 µM ([2]; 1 uM): 1.14; fold induction at 5 µM ([2]; 5 uM): 1.21; fold induction at 10 µM ([2]; 10 uM): 1.11; fold induction at 20 µM ([2]; 20 uM): 1.45; fold induction at 40 µM ([2]; 40 uM): 1.38; fold induction at 5 µM [3]: 1.05; fold induction at 10 µM [3]: 0.876; fold induction at 20 µM [3]: 0.824; fold induction at 40 µM [3]: 0.802
COc1ccc(CCNC(=O)c2nn(C)c3c2CS(=O)(=O)c2ccccc2-3)cc1OC [MLS001117140-01]																	1.03	1.07	0.909	0.901	fold induction at 20 µM ([1]; 20 uM): 0.922; fold induction at 40 µM ([1]; 40 uM): 0.942; fold induction at 0.5 µM ([2]; 0.5 uM): 0.932; fold induction at 1 µM ([2]; 1 uM): 1.12; fold induction at 5 µM ([2]; 5 uM): 1.09; fold induction at 10 µM ([2]; 10 uM): 1.37; fold induction at 20 µM ([2]; 20 uM): 1.09; fold induction at 40 µM ([2]; 40 uM): 1.06; fold induction at 5 µM [3]: 0.951; fold induction at 10 µM [3]: 1.12; fold induction at 20 µM [3]: 1.38; fold induction at 40 µM [3]: 1.17
Cc1cccn2c(=O)c3cc(C(=O)NC4CCCCC4)n(C)c3nc12 [MLS001117351-01]	1.103	1.105	0.7718	0.7445	0.7137	0.4323	1.025	0.9924	0.8315	0.9463	0.7669	0.6986	1.016	1.088	1.1481	0.8952					
COc1ccc2oc(C[S+]([O-])c3ccccc3)c(C(=O)O)c2c1 (stereo not drawn) [MLS001208858-01]	0.9851	1.003	0.8892	0.8759	0.8548	0.8425	1.095	0.9977	1.104	1.062	1.1	1.007	0.944	0.8018	0.9471	0.9238					
O=C(NCCCn1ccnc1)/C(=C/c1cccs1)NC(=O)c1ccco1 [MLS000712769-01]													0.9651	1.071	0.9141	0.8582					Burkin Assay in Myoblasts, value relative to DMSO ([1]; 0.5 uM): 1.055; Burkin Assay in Myoblasts, value relative to DMSO ([1]; 1 uM): 1.059; Burkin Assay in Myoblasts, value relative to DMSO ([1]; 5 uM): 0.9476; Burkin Assay in Myoblasts, value relative to DMSO ([1]; 10 uM): 0.9286; Burkin Assay in Myoblasts, value relative to DMSO ([1]; 20 uM): 0.7697; Burkin Assay in Myoblasts, value relative to DMSO ([1]; 40 uM): 0.7893; Burkin Assay in Myotubes (signal relative to DMSO) ([2]; 0.5 uM): 0.9746; Burkin Assay in Myotubes (signal relative to DMSO) ([2]; 1 uM): 0.8428; Burkin Assay in Myotubes (signal relative to DMSO) ([2]; 5 uM): 1.2524; Burkin Assay in Myotubes (signal relative to DMSO) ([2]; 10 uM): 0.9038; Burkin Assay in Myotubes (signal relative to DMSO) ([2]; 20 uM): 0.9219; Burkin Assay in Myotubes (signal relative to DMSO) ([2]; 40 uM): 0.9817
